Source: patent US10167262B2, “Herbicidal substituted 3-arylpyrazoles” (FMC CORPORATION, priority 2014, dated 2019)

How the values were obtained:
Format in all cases: in vivo
kochia (Kochia scoparia) = experiment: Test E pre-/postemergence greenhouse test, plant response rating 0-100; settings: Preemergence, scale 0 to 100
In short: (§1)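 Seeds sown in silt loam soil received preemergence treatment with compound in a non-phytotoxic solvent mixture containing surfactant. Postemergence, plants at 2–18 cm (1- to 4-leaf stage) in peat/vermiculite medium were sprayed with the same formulation. Visual injury versus untreated controls was rated 0–100 after 14 to 21 days in the greenhouse.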

[1] = system: surinam grass (Brachiaria decumbens); experiment: as above; settings: Preemergence, scale 0 to 100
In short: as §1

[2] = system: velvetleaf (Abutilon theophrasti); experiment: as above; settings: Preemergence, scale 0 to 100
In short: as §1

[3] = system: ragweed (common ragweed, Ambrosia elatior); experiment: as above; settings: Preemergence, scale 0 to 100
In short: as §1

[4] = system: smartweed (ladysthumb smartweed, Polygonum persicaria); experiment: as above; settings: Postemergence, scale 0 to 100
[5] = system: giant foxtail (Setaria faberii); experiment: as above; settings: Preemergence, scale 0 to 100
[6] = system: canarygrass (Phalaris minor); experiment: Test C postemergence greenhouse test, plant response rating 0-100; settings: for Plant response rating, Canarygrass: 250 g ai/ha, scale 0 to 100
In short: (§2)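 Each weed species was grown in potting medium and sprayed after emergence, when 2–18 cm tall. Ratings, made by eye relative to control pots, were recorded 13–15 days later using a scale where 0 is no effect.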

[7] = system: cocklebur (common cocklebur, Xanthium strumarium); experiment: as above; settings: for Plant response rating, Cocklebur: 250 g ai/ha, scale 0 to 100
In short: as §2

[8] = system: winter barley (Hordeum vulgare); experiment: as above; settings: for Plant response rating, Barley: 250 g ai/ha, scale 0 to 100
In short: as §2

[9] = system: downy bromegrass (Bromus tectorum); experiment: as above; settings: for Plant response rating, Bromegrass, Downy: 250 g ai/ha, scale 0 to 100
In short: as §2

[10] = system: bermudagrass (Cynodon dactylon); experiment: as above; settings: for Plant response rating, Bermudagrass: 250 g ai/ha, scale 0 to 100
In short: as §2

[11] = system: surinam grass (Brachiaria decumbens); experiment: as above; settings: for Plant response rating, Surinam Grass: 250 g ai/ha, scale 0 to 100
In short: as §2

[12] = system: deadnettle (henbit deadnettle, Lamium amplexicaule); experiment: as above; settings: for Plant response rating, Deadnettle: 250 g ai/ha, scale 0 to 100
In short: as §2

[13] = system: woolly cupgrass (Eriochloa villosa); experiment: as above; settings: for Plant response rating, Cupgrass, Woolly: 250 g ai/ha, scale 0 to 100
In short: as §2

[14] = system: green foxtail (Setaria viridis); experiment: as above; settings: for Plant response rating, Foxtail, Green: 250 g ai/ha, scale 0 to 100
In short: as §2

[15] = system: windgrass (Apera spica-venti); experiment: as above; settings: for Plant response rating, Windgrass: 250 g ai/ha, scale 0 to 100
In short: as §2

With O=C(c1ccccc1)c1cn(S(=O)(=O)CC(F)(F)F)nc1-c1cc(Cl)cc(Cl)c1 [Compound 3] the “Kochia plant response rating” value (kochia (Kochia scoparia); 31 g ai/ha) was 0, the “Kochia plant response rating” value (kochia (Kochia scoparia); 62 g ai/ha) was 20 and the “Kochia plant response rating” value (kochia (Kochia scoparia); 125 g ai/ha) was 25. For the same compound, the “Kochia plant response rating” value (kochia (Kochia scoparia); 250 g ai/ha) was 50, the “Kochia plant response rating” value (kochia (Kochia scoparia); 500 g ai/ha) was 70 and the “Surinam Grass plant response rating” value ([1]; 31 g ai/ha) was 0. The “Surinam Grass plant response rating” value ([1]; 62 g ai/ha) was 0, the “Surinam Grass plant response rating” value ([1]; 125 g ai/ha) was 0 and the “Surinam Grass plant response rating” value ([1]; 250 g ai/ha) was 0. For the same compound, the “Surinam Grass plant response rating” value ([1]; 500 g ai/ha) was 0, the “Velvetleaf plant response rating” value ([2]; 31 g ai/ha) was 20 and the “Velvetleaf plant response rating” value ([2]; 62 g ai/ha) was 20. The “Velvetleaf plant response rating” value ([2]; 125 g ai/ha) was 35, the “Velvetleaf plant response rating” value ([2]; 250 g ai/ha) was 40 and the “Velvetleaf plant response rating” value ([2]; 500 g ai/ha) was 80. The “Ragweed plant response rating” value ([3]; 31 g ai/ha) was 0, the “Ragweed plant response rating” value ([3]; 62 g ai/ha) was 0 and the “Ragweed plant response rating” value ([3]; 125 g ai/ha) was 0. For the same compound, the “Ragweed plant response rating” value ([3]; 250 g ai/ha) was 100, the “Ragweed plant response rating” value ([3]; 500 g ai/ha) was 95 and the “Plant response rating, Smartweed” value ([4]; 250 g ai/ha) was 65. The “Foxtail, Giant plant response rating” value ([5]; 31 g ai/ha) was 0, the “Foxtail, Giant plant response rating” value ([5]; 62 g ai/ha) was 0 and the “Foxtail, Giant plant response rating” value ([5]; 125 g ai/ha) was 0. The “Foxtail, Giant plant response rating” value ([5]; 250 g ai/ha) was 15 and the “Foxtail, Giant plant response rating” value ([5]; 500 g ai/ha) was 35.

In the case of Cn1cc(C(=O)c2ccccc2)c(-c2cc(Cl)cc(Cl)c2)n1 [Compound 54, [3-(3,5-dichlorophenyl)-1-methyl-1H-pyrazol-4-yl]phenylmethanone], the “Plant response rating (0 to 100), Canarygrass” value ([6]; 31 g ai/ha) is reported as 0, the “Plant response rating (0 to 100), Canarygrass” value ([6]; 62 g ai/ha) is reported as 0 and the “Plant response rating (0 to 100), Canarygrass” value ([6]; 125 g ai/ha) is reported as 0. The “Plant response rating, Canarygrass” value [6] was 0, the “Plant response rating (0 to 100), Cocklebur” value ([7]; 31 g ai/ha) was 0 and the “Plant response rating (0 to 100), Cocklebur” value ([7]; 62 g ai/ha) was 0. The “Plant response rating (0 to 100), Cocklebur” value ([7]; 125 g ai/ha) was 0, the “Plant response rating, Cocklebur” value [7] was 0 and the “Plant response rating (0 to 100), Barley” value ([8]; 31 g ai/ha) was 0. The “Plant response rating (0 to 100), Barley” value ([8]; 62 g ai/ha) was 0, the “Plant response rating (0 to 100), Barley” value ([8]; 125 g ai/ha) was 0 and the “Plant response rating, Barley” value [8] was 0. The “Plant response rating (0 to 100), Bromegrass, Downy” value ([9]; 31 g ai/ha) was 0, the “Plant response rating (0 to 100), Bromegrass, Downy” value ([9]; 62 g ai/ha) was 0 and the “Plant response rating (0 to 100), Bromegrass, Downy” value ([9]; 125 g ai/ha) was 0. For the same compound, the “Plant response rating, Bromegrass, Downy” value [9] was 0, the “Plant response rating (0 to 100), Bermudagrass” value ([10]; 31 g ai/ha) was 0 and the “Plant response rating (0 to 100), Bermudagrass” value ([10]; 62 g ai/ha) was 0. The “Plant response rating (0 to 100), Bermudagrass” value ([10]; 125 g ai/ha) was 0, the “Plant response rating, Bermudagrass” value [10] was 0 and the “Plant response rating (0 to 100), Surinam Grass” value ([11]; 62 g ai/ha) was 0. The “Plant response rating (0 to 100), Surinam Grass” value ([11]; 125 g ai/ha) was 0, the “Plant response rating, Surinam Grass” value [11] was 0 and the “Plant response rating (0 to 100), Deadnettle” value ([12]; 31 g ai/ha) was 0. The “Plant response rating (0 to 100), Deadnettle” value ([12]; 62 g ai/ha) was 0, the “Plant response rating (0 to 100), Deadnettle” value ([12]; 125 g ai/ha) was 0 and the “Plant response rating, Deadnettle” value [12] was 5. The “Plant response rating (0 to 100), Cupgrass, Woolly” value ([13]; 31 g ai/ha) was 0, the “Plant response rating (0 to 100), Cupgrass, Woolly” value ([13]; 62 g ai/ha) was 0 and the “Plant response rating (0 to 100), Cupgrass, Woolly” value ([13]; 125 g ai/ha) was 0. For the same compound, the “Plant response rating, Cupgrass, Woolly” value [13] was 0, the “Plant response rating (0 to 100), Foxtail, Green” value ([14]; 31 g ai/ha) was 0 and the “Plant response rating (0 to 100), Foxtail, Green” value ([14]; 62 g ai/ha) was 0. For the same compound, the “Plant response rating (0 to 100), Foxtail, Green” value ([14]; 125 g ai/ha) was 0, the “Plant response rating, Foxtail, Green” value [14] was 0 and the “Plant response rating (0 to 100), Windgrass” value ([15]; 62 g ai/ha) was 0. The “Plant response rating (0 to 100), Windgrass” value ([15]; 125 g ai/ha) was 0, the “Plant response rating, Windgrass” value [15] was 0 and the “Kochia plant response rating” value (kochia (Kochia scoparia); 125 g ai/ha) was 0. The “Kochia plant response rating” value (kochia (Kochia scoparia); 250 g ai/ha) was 28, the “Plant response rating, Kochia” value (kochia (Kochia scoparia); 1000 g ai/ha) was 97 and the “Velvetleaf plant response rating” value ([2]; 125 g ai/ha) was 87. For the same compound, the “Velvetleaf plant response rating” value ([2]; 250 g ai/ha) was 78, the “Ragweed plant response rating” value ([3]; 125 g ai/ha) was 35 and the “Ragweed plant response rating” value ([3]; 250 g ai/ha) was 62. The “Plant response rating, Smartweed” value ([4]; 250 g ai/ha) was 0.

In the case of C=CCn1cc(C(=O)c2ccccc2)c(-c2cc(Cl)cc(Cl)c2)n1 [Compound 60], the “Plant response rating (0 to 100), Canarygrass” value ([6]; 31 g ai/ha) is reported as 0, the “Plant response rating (0 to 100), Canarygrass” value ([6]; 62 g ai/ha) is reported as 0 and the “Plant response rating (0 to 100), Canarygrass” value ([6]; 125 g ai/ha) is reported as 0. For the same compound, the “Plant response rating, Canarygrass” value [6] was 0, the “Plant response rating (0 to 100), Cocklebur” value ([7]; 31 g ai/ha) was 10 and the “Plant response rating (0 to 100), Cocklebur” value ([7]; 62 g ai/ha) was 15. The “Plant response rating (0 to 100), Cocklebur” value ([7]; 125 g ai/ha) was 20, the “Plant response rating, Cocklebur” value [7] was 50 and the “Plant response rating (0 to 100), Barley” value ([8]; 31 g ai/ha) was 0. The “Plant response rating (0 to 100), Barley” value ([8]; 62 g ai/ha) was 0, the “Plant response rating (0 to 100), Barley” value ([8]; 125 g ai/ha) was 0 and the “Plant response rating, Barley” value [8] was 0. For the same compound, the “Plant response rating (0 to 100), Bromegrass, Downy” value ([9]; 31 g ai/ha) was 0, the “Plant response rating (0 to 100), Bromegrass, Downy” value ([9]; 62 g ai/ha) was 0 and the “Plant response rating (0 to 100), Bromegrass, Downy” value ([9]; 125 g ai/ha) was 0. The “Plant response rating, Bromegrass, Downy” value [9] was 0, the “Plant response rating (0 to 100), Bermudagrass” value ([10]; 31 g ai/ha) was 0 and the “Plant response rating (0 to 100), Bermudagrass” value ([10]; 62 g ai/ha) was 5. For the same compound, the “Plant response rating (0 to 100), Bermudagrass” value ([10]; 125 g ai/ha) was 5, the “Plant response rating, Bermudagrass” value [10] was 5 and the “Plant response rating (0 to 100), Surinam Grass” value ([11]; 62 g ai/ha) was 0. For the same compound, the “Plant response rating (0 to 100), Surinam Grass” value ([11]; 125 g ai/ha) was 0, the “Plant response rating, Surinam Grass” value [11] was 5 and the “Plant response rating (0 to 100), Deadnettle” value ([12]; 31 g ai/ha) was 0. For the same compound, the “Plant response rating (0 to 100), Deadnettle” value ([12]; 62 g ai/ha) was 0, the “Plant response rating (0 to 100), Deadnettle” value ([12]; 125 g ai/ha) was 0 and the “Plant response rating, Deadnettle” value [12] was 0. For the same compound, the “Plant response rating (0 to 100), Cupgrass, Woolly” value ([13]; 31 g ai/ha) was 0, the “Plant response rating (0 to 100), Cupgrass, Woolly” value ([13]; 62 g ai/ha) was 0 and the “Plant response rating (0 to 100), Cupgrass, Woolly” value ([13]; 125 g ai/ha) was 5. For the same compound, the “Plant response rating, Cupgrass, Woolly” value [13] was 5, the “Plant response rating (0 to 100), Foxtail, Green” value ([14]; 31 g ai/ha) was 0 and the “Plant response rating (0 to 100), Foxtail, Green” value ([14]; 62 g ai/ha) was 0. The “Plant response rating (0 to 100), Foxtail, Green” value ([14]; 125 g ai/ha) was 0, the “Plant response rating, Foxtail, Green” value [14] was 0 and the “Plant response rating (0 to 100), Windgrass” value ([15]; 62 g ai/ha) was 0. For the same compound, the “Plant response rating (0 to 100), Windgrass” value ([15]; 125 g ai/ha) was 0, the “Plant response rating, Windgrass” value [15] was 0 and the “Plant response rating, Smartweed” value ([4]; 31 g ai/ha) was 0. For the same compound, the “Plant response rating, Smartweed” value ([4]; 62 g ai/ha) was 0, the “Plant response rating, Smartweed” value ([4]; 125 g ai/ha) was 0 and the “Plant response rating, Smartweed” value ([4]; 250 g ai/ha) was 0.
